This assay addresses FXR (Homo sapiens (Human), UniProt Q96RI1). The experiment in a line: FXR EC50 (FXR agonist activity reported with each example). Format: cell-based.

pEC50: −log10 of the molar value.

Usually pEC50 stands for the EC50 on a negative log10 scale, so that one unit is a factor of ten. Read a low pEC50 as a large EC50.

Chain of FXR (Q96RI1 262-486): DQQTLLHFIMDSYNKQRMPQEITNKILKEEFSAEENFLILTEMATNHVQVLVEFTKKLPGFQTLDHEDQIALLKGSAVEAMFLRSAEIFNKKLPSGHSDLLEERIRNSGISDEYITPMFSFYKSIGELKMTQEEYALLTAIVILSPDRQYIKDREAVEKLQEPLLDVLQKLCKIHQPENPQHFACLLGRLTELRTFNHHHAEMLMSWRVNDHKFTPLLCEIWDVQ

As for `NC(=O)c1cc(-c2noc(C34CCC(/C=C/c5c(-c6c(Cl)cncc6Cl)noc5C5CC5)(CC3)CC4)n2)cc(C(F)(F)F)c1` [Example 441, (E)-3-(5-(4-(2-(5-cyclopropyl-3-(3,5-dichloropyridin-4-yl)isoxazol-4-yl)vinyl)bicyclo[2.2.2]octan-1-yl)-1,2,4-oxadiazol-3-yl)-5-(trifluoromethyl)benzamide], the pEC50 was 6.82. To `O=C(O)c1cc(OCC23CCC(OCc4c(-c5ccccc5C(F)(F)F)noc4C4CC4)(CC2)CC3)ccc1F` [Example 290] belongs 6.59. Compound `O=C(O)c1cccc(-c2noc(C34CCC(/C=C/c5c(-c6c(Cl)cncc6Cl)noc5C5CC5)(CC3)OC4)n2)c1` [Example 495, (E)-3-(5-(1-(2-(5-cyclopropyl-3-(3,5-dichloropyridin-4-yl)isoxazol-4-yl)vinyl)-2-oxabicyclo[2.2.2]octan-4-yl)-1,2,4-oxadiazol-3-yl)benzoic acid] showed a pEC50 of 5.77. With `O=C(O)c1cccc(-c2noc(C34CCC(OCc5c(-c6c(Cl)cncc6Cl)noc5C5CC5)(CC3)CC4)n2)c1F` [Example 71, 3-(5-(4-((5-Cyclopropyl-3-(3,5-dichloropyridin-4-yl)isoxazol-4-yl)methoxy)bicyclo[2.2.2]octan-1-yl)-1,2,4-oxadiazol-3-yl)-2-fluorobenzoic acid], the pEC50 is 7.16. Turning to `COc1cc(-c2noc(C34CCC(OCc5c(-c6c(Cl)cnn6C)noc5C5CC5)(CC3)CC4)n2)cc(C(=O)O)n1` [Example 275, 4-(5-(4-((3-(4-chloro-1-methyl-1H-pyrazol-5-yl)-5-cyclopropylisoxazol-4-yl)methoxy)bicyclo[2.2.2]octan-1-yl)-1,2,4-oxadiazol-3-yl)-6-methoxypicolinic acid], the pEC50 is 5.60.

As to `O=C(O)c1cccc(C23CCC(COCc4c(-c5c(Cl)cncc5Cl)noc4C4CC4)(CC2)CO3)c1` [Example 511, 3-(4-(((5-cyclopropyl-3-(3,5-dichloropyridin-4-yl)isoxazol-4-yl)methoxy)methyl)-2-oxabicyclo[2.2.2]octan-1-yl)benzoic acid], the pEC50 is 5.54. The compound `O=C(O)c1ccc(-c2nc(C34CCC(OCc5c(-c6ccccc6C(F)(F)F)noc5C5CC5)(CC3)CC4)no2)cc1` [Example 21, 4-(3-(4-((5-cyclopropyl-3-(2-(trifluoromethyl)phenyl)isoxazol-4-yl)methoxy)bicyclo[2.2.2]octan-1-yl)-1,2,4-oxadiazol-5-yl)benzoic acid] had a pEC50 of 6.06. Take `CC(C)Oc1ccc(-c2noc(C34CCC(OCc5c(-c6c(Cl)cncc6Cl)noc5C5CC5)(CC3)CC4)n2)cc1C(=O)O` [Example 256, 5-(5-(4-((5-cyclopropyl-3-(3,5-dichloropyridin-4-yl)isoxazol-4-yl)methoxy)bicyclo[2.2.2]octan-1-yl)-1,2,4-oxadiazol-3-yl)-2-isopropoxybenzoic acid]: the pEC50 is 6.59.

Consider `COc1ccc(-c2nc(C34CCC(OCc5c(-c6c(Cl)cncc6Cl)noc5C5CC5)(CC3)CC4)co2)cc1C(=O)O` [Example 252, 5-(4-(4-((5-cyclopropyl-3-(3,5-dichloropyridin-4-yl)isoxazol-4-yl)methoxy)bicyclo[2.2.2]octan-1-yl)oxazol-2-yl)-2-methoxybenzoic acid], for which the pEC50 is 7.07. To `O=C(O)c1csc(OCC23CCC(COCc4c(-c5c(Cl)cccc5Cl)noc4C4CC4)(CC2)CC3)n1` [Example 176, 2-((4-(((5-cyclopropyl-3-(2,6-dichlorophenyl)isoxazol-4-yl)methoxy)methyl)bicyclo[2.2.2]octan-1-yl)methoxy)thiazole-4-carboxylic acid] belongs 6.13; to `NC(=O)C12CCC(COCc3c(-c4c(Cl)cccc4Cl)noc3C3CC3)(CC1)CC2` [Intermediate 162C, 4-(((5-cyclopropyl-3-(2,6-dichlorophenyl)isoxazol-4-yl)methoxy)methyl)bicyclo[2.2.2]octane-1-carboxamide], 6.74. Turning to `O=C(O)c1ccnc(-c2noc(C34CCC(OCc5c(-c6c(Cl)cccc6Cl)noc5C5CC5)(CC3)CC4)n2)c1` [Example 10, 2-(5-(4-((5-cyclopropyl-3-(2,6-dichlorophenyl)isoxazol-4-yl)methoxy)bicyclo[2.2.2]octan-1-yl)-1,2,4-oxadiazol-3-yl)isonicotinic acid], the pEC50 is 5.57. To `O=C(O)c1ccc(OCC23CCC(OCc4c(-c5ccccc5C(F)(F)F)noc4C4CC4)(CC2)CC3)c2ncccc12` [Example 305] belongs 6.98. To `O=C(O)c1ccc(C(O)C23CCC(OCc4c(-c5c(Cl)cccc5Cl)noc4C4CC4)(CC2)CC3)c(F)c1` (stereo not shown) [Example 125, 4-((4-((5-cyclopropyl-3-(2,6-dichlorophenyl)isoxazol-4-yl)methoxy)bicyclo[2.2.2]octan-1-yl)(hydroxy)methyl)-3-fluorobenzoic acid] belongs 5.80; to `O=C(O)c1ccc2cc(OCC34CCC(OCc5c(-c6c(Cl)cncc6Cl)noc5C5CC5)(CC3)CC4)ccc2n1` [Example 115, 6-((4-((5-cyclopropyl-3-(3,5-dichloropyridin-4-yl)isoxazol-4-yl)methoxy)bicyclo[2.2.2]octan-1-yl)methoxy)quinoline-2-carboxylic acid], 7.28. In turn, `COc1ccc(-c2noc(C34CCC(OCc5c(-c6c(Cl)cncc6Cl)noc5C5CC5)(CC3)CO4)n2)cc1C(=O)O` [Example 455, 5-(5-(4-((5-cyclopropyl-3-(3,5-dichloropyridin-4-yl)isoxazol-4-yl)methoxy)-2-oxabicyclo[2.2.2]octan-1-yl)-1,2,4-oxadiazol-3-yl)-2-methoxybenzoic acid] gave a pEC50 of 6.54. Then `COc1nc(C(=O)O)cc2ccc(C#CC34CCC(OCc5c(-c6c(Cl)cncc6Cl)noc5C5CC5)(CC3)CC4)cc12` [Example 521, 7-((4-((5-cyclopropyl-3-(3,5-dichloropyridin-4-yl)isoxazol-4-yl)methoxy)bicyclo[2.2.2]octan-1-yl)ethynyl)-1-methoxyisoquinoline-3-carboxylic acid], with 7.40.

`COc1cc(OCC23CCC(OCc4c(-c5c(Cl)cncc5Cl)noc4C4CC4)(CC2)CC3)nc(C(=O)O)c1` [Example 323] had a pEC50 of 7.13.

`N#CC12CCC(OCc3c(-c4c(Cl)cccc4Cl)noc3C3CC3)(CC1)CC2` [Intermediate 70A, 4-((5-Cyclopropyl-3-(2,6-dichlorophenyl)isoxazol-4-yl)methoxy)bicyclo[2.2.2]octane-1-carbonitrile] showed a pEC50 of 6.33.

`O=C(O)c1cccc(-n2cc(C34CCC(OCc5c(-c6c(Cl)cccc6Cl)noc5C5CC5)(CC3)CC4)nn2)c1` [Example 131, 3-(4-(4-((5-cyclopropyl-3-(2,6-dichlorophenyl)isoxazol-4-yl)methoxy)bicyclo[2.2.2]octan-1-yl)-1H-1,2,3-triazol-1-yl)benzoic acid]: the pEC50 is 6.34. For the compound `COC(=O)c1ccc(-c2noc(C34CCC(COCc5c(-c6c(Cl)cccc6Cl)noc5C5CC5)(CC3)CC4)n2)cc1` [Example 156], the pEC50 was 5.77. To `O=C(O)c1ccc(CNC(=O)C23CCC(OCc4c(-c5c(Cl)cccc5Cl)noc4C4CC4)(CC2)CC3)cc1` [Example 141, 4-((4-((5-cyclopropyl-3-(2,6-dichlorophenyl)isoxazol-4-yl)methoxy)bicyclo[2.2.2]octane-1-carboxamido)methyl)benzoic acid] belongs 5.55.

(Values after patent publication US10730863B2, “Bridged bicyclic compounds as farnesoid X receptor modulators” (BRISTOL-MYERS SQUIBB COMPANY, priority 2017, dated 2020).)
